What is called IC50 is the concentration needed to halve the response being measured. A low value points to higher potency.

Like-named read-outs stand apart in the source and are kept apart here.

The record followed here is US20080070971A1, “Medical Use of Bilirubin and its Structural Analogues” (priority 2006, published 2008).

One assay deals with T1, HMG-CoA reductase (Homo sapiens, UniProt P04035).
T1 construct: from tissue; host or cells: liver microsomes
T1 sequence (P04035 1-888): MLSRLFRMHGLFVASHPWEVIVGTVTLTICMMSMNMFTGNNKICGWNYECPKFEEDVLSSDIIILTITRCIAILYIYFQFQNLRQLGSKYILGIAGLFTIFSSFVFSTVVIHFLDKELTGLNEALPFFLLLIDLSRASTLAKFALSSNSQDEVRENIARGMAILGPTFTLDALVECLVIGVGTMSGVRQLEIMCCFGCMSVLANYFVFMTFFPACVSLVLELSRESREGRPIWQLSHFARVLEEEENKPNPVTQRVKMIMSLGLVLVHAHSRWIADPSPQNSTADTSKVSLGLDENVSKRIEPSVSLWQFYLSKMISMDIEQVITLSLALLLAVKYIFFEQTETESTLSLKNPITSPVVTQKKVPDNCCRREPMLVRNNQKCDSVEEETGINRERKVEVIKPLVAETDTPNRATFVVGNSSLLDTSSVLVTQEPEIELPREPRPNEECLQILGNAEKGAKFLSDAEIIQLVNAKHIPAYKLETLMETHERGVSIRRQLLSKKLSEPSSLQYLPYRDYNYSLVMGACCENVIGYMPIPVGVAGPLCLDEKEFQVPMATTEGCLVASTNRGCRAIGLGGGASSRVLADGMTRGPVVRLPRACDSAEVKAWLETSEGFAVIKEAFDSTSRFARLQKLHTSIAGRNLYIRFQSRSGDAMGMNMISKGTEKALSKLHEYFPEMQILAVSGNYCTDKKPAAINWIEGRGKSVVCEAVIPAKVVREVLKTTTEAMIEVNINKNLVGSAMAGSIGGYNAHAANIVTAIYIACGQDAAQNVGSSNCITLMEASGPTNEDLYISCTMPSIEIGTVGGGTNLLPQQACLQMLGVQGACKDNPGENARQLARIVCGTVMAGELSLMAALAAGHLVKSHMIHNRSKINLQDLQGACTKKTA
The experiment in a line: HMG-CoA reductase assay in liver microsomes. It counts as biochemical. The settings on record: moderately high concentrations; 30 mg/L (FIG. 6). The protocol:
Liver microsomes, which are used to investigate cholesterol metabolism, were prepared as follows. Liver was homogenized in 50 mM Tris HCl buffer (pH 7.4), containing 0.3 M sucrose, 10 mM DTT, and 10 mM EDTA. The homogenate was centrifuged at 20,000×g for 15 min, and the supernatant was centrifuged at 100,000×g for 60 min. The resulting microsomal fraction was suspended in 3 ml of 0.1 M potassium phosphate buffer (pH 7.4), containing 1 mM EDTA and 5 mM DTT. Aliquots were immediately frozen in liquid nitrogen and stored at −20° C. until analysis.
Assay of HMG-CoA reductase. Microsomal suspensions of […], containing 5 mg protein, were preincubated for 5 min at 37° C. with […] of 0.1 M potassium phosphate buffer (pH 7.4), containing 1 mM EDTA and 12 mM glucose-6-phosphate. The assay was initiated by adding […] of cofactor-substrate solution (0.1 mM HMG-CoA, 3 mM MADPH, and 2 U/ml glucose-6-phosphate dehydrogenase). The incubation was performed at 37+ C. for 30 min and was terminated by the addition of […] of 1 M MaOH. After lactonization, the mevalonolactone was separated by thin layer chromatography. The eluate, which contained mevalonolactone, was collected in a scintillation vial. The radioactivity was then counted in a Packard 3320 scintillation spectrometer.

The target of the next assay is T2, UDPGT1A1 (Homo sapiens, UniProt P22309).
T2 construct: purchased SigmaAldrich U7254
T2 sequence (P22309 26-533): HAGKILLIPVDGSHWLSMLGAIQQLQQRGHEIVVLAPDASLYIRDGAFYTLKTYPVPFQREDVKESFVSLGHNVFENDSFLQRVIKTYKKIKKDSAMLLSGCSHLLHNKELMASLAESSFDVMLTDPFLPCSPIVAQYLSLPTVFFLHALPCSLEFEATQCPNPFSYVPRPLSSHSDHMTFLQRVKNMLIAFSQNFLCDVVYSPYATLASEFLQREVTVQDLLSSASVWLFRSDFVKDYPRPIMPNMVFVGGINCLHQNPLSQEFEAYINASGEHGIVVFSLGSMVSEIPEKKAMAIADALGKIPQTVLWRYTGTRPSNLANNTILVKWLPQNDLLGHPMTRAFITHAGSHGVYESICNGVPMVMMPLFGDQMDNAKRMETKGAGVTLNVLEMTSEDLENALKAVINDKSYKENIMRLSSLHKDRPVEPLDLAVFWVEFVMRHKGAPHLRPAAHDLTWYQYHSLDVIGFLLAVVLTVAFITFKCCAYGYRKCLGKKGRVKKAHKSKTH
The experiment in a line: Inhibition of bilirubin glucuronidation by UDPGT. It counts as biochemical. The text has this:
UDP-glucuronosyltransferase 1A1 isozenzyme (Cat. #U7254), uridine-5′-diphosphoglucuronic acid (UDPGA, #U5625), bilirubin (B), naringenin (N5893), octyl gallate (#48700) and quercetin (Q0125) were purchased from SigmaAldrich (St. Louis, Mo.). Bilirubin dimethyl ester (#B612-9), biliverdin dimethyl ester (#B610-9), biliverdin hydrocholoride (#B655-9), mesobilirubin (#M588-9), urobilin hydrochloride (#U590-1), and stercobilin hydrochloride (#S594-9) were purchased from Frontier Scientific Inc. (Logan, Utah).
The enzyme activity assay method was based on those of Adlard and Lathe (Biochem. J., 1970, 119:437-445). Incubation mixtures (total vol. 1.25 ml, pH 7.9) were prepared in tubes kept in ice and had the following composition: bilirubin (0.1 mM), UDP-glucuronic acid (0.25 mM), serum (5.8%, v/v), Mg2+ (5.0 mM), microsomal preparation (0.5-1.5 mg of protein), 10 mM tris-0.14 M KCl (pH 8.0), and 10% (v/v) dimethylsulphoxide. Incubation (10 min, 37° C.) was carried out with shaking (100 cycles/min). After incubation, tubes were placed in ice-water (5 min) and direct-reacting bilirubin was determined. All incubations were done in duplicate. Enzyme activity was expressed as μg of bilirubin conjugated/h per mg of protein. Differences from controls of more than 10% were regarded as significant.

The test system of another assay is cyclooxygenase (COX). The experiment in a line: Cyclooxygenase (COX) inhibition. The settings on record: concentration of 10 mg/L (FIG. 4). It counts as biochemical, human. The protocol: The activity of COX was determined by the procedure described in Assay Design's Enzyme Immunometric Assay (EIA) kit (Assay Design Inc., TiterZyme EIA cat.#900-094). Briefly, the kit uses a monoclonal antibody to human COX-II immobilized on a microtiter plate to bind the human COX in the standard or sample. After a short incubation the excess standard or sample is washed out and a rabbit polyclonal antibody to human COX labeled with the enzyme. Horseradish peroxidase is added. This labeled antibody binds to the human COX captured on the plate. After a short incubation the excess labeled antibody is washed out and substrate is added. The substrate reacts with the labeled antibody bound to the human COX captured on the plate. After a short incubation, the enzyme reaction is stopped and the color generated is read at 450 nm. The measured optical density is directly proportional to the concentration of human COX.
Purified cyclooxygenases (COX) were obtained from Kayman Chemical Company and used to examine the inhibitory effect of bilirubin with arachidonic acid as the substrate. High purity of bilirubin (SigmaAldrich #B4126), biliverdin (Frontier Scientific Inc., Cat. B655-9) and hemin (SigmaAldrich, #51280) were used as received.

[1] abbreviates: Table 4, bilirubin 0.1 mM as substrate, read-out: Apparent Ki.
The mark [2] stands for this setting: read-out: inhibition constant (Ki).

For the molecule `C=CC1=C(C)c2cc3[n-]c(cc4[n-]c(cc5nc(cc1n2)C(C)=C5C=C)c(C)c4CCC(=O)O)c(CCC(=O)O)c3C.O.[Fe+2]` [Hematin, reference compound], the “inhibition of HMG-CoA reductase activity (comparison)” value at HMG-CoA reductase is recorded as “strongly inhibit”.

For “(±)-2,3-Dihydro-5,7-dihydroxy-2-(4-hydroxyphenyl)-4H-1-benzopyran-4-one; 4′,5,7-Trihydroxyflavanone [Naringenin]”, the Ki at UDPGT1A1 (setting [1]) stood at 4800 nM; on UDPGT1A1 (setting [2]), 5000 nM. Further, at UDPGT1A1 (under the testing conditions), the IC50 was about 16 µM.

For `C=CC1=C(C)/C(=C/c2[nH]c(Cc3[nH]c(/C=C4\NC(=O)C(C=C)=C4C)c(C)c3CCC(=O)O)c(CCC(=O)O)c2C)NC1=O` [Bilirubin IIIα], the Ki at UDPGT1A1 (setting [1]) was determined as 1500 nM.

Regarding `CCCCCCCCOC(=O)c1cc(O)c(O)c(O)c1` [Octyl gallate ester], the Ki at UDPGT1A1 (setting [1]) came to 7600 nM.

hemin: in the assay with cyclooxygenase (COX), the “reducing COX activity (comparison)” value was “effective in reducing COX activity”.

Regarding `C=CC1=C(C)/C(=C/C2=NC(=C/c3[nH]c(/C=C4\NC(=O)C(C)=C4C=C)c(C)c3CCC(=O)O)/C(CCC(=O)O)=C2C)NC1=O` [biliverdin, 2,7,13,17-tetramethyl-1,19-dioxo-3,18-divinyl-1,19,22,24-tetrahydro-21H-biline-8,12-dipropanoic acid], the “inhibition of HMG-CoA reductase activity (comparison)” value against HMG-CoA reductase is reported as “strongly inhibit”. For the same molecule, the Ki on UDPGT1A1 (setting [1]) was 19900 nM.

Consider `C=CC1=C(C)C(=O)N/C1=C\c1[nH]c(Cc2[nH]c(/C=C3\NC(=O)C(C)=C3C=C)c(C)c2CCC(=O)O)c(CCC(=O)O)c1C` [Bilirubin XIIIα], for which the Ki at UDPGT1A1 (setting [1]) stood at 1700 nM.

In the case of `CCC1=C(C)/C(=C/c2[nH]c(Cc3[nH]c(/C=C4\NC(=O)C(C)=C4CC)c(C)c3CCC(=O)O)c(CCC(=O)O)c2C)NC1=O` [Mesobilirubin IXα, 3,18-diethyl-2,7,13,17-tetramethyl-1,19-dioxo-1,19,22,24-tetrahydro-21H-biline-8,12-dipropanoic acid], at UDPGT1A1 (setting [1]), the Ki was found to be 2300 nM.

With `C=CC1=C(C)C(OC)N/C1=C\c1[nH]c(Cc2[nH]c(/C=C3\NC(OC)C(C=C)=C3C)c(C)c2CCC(=O)O)c(CCC(=O)O)c1C` (stereo not shown) [DimethoxybilirubinIXα], the values for the Ki on UDPGT1A1 (setting [1]) and on UDPGT1A1 (setting [2]) were 1300 nM and about 1000 nM, respectively.
